These results are taken from patent US8461328B2, “Tricyclic heterocyclic compounds, compositions and methods of use thereof” (Genentech, Inc., priority 2010, dated 2013).

Type in all cases: biochemical
One test concerns the target T1, JAK2 (Homo sapiens, UniProt O60674).
T1 construct: made in house; host or cells: SF9 insect cells (baculovirus)
As to the kind of experiment: JAK2 inhibition (Table 4). The settings on record: read-out: JAK2 Ki.

A further test addresses T2, JAK3 (Homo sapiens, UniProt P52333).
T2 construct: made in house; host or cells: SF9 insect cells (baculovirus)
Put plainly: JAK3 inhibition (Table 4). The note with it: read-out: JAK3 Ki.

The target of another test is T3, JAK1 (Homo sapiens, UniProt P23458).
T3 construct: made in house; host or cells: SF9 insect cells (baculovirus)
As to the kind of experiment: JAK1 inhibition (Table 4). The note with it: read-out: JAK1 Ki.

In another test the target is T4, TYK2 (Homo sapiens, UniProt P29597).
T4 construct: made in house; host or cells: SF9 insect cells (baculovirus)
T4 sequence (P29597 873-1187): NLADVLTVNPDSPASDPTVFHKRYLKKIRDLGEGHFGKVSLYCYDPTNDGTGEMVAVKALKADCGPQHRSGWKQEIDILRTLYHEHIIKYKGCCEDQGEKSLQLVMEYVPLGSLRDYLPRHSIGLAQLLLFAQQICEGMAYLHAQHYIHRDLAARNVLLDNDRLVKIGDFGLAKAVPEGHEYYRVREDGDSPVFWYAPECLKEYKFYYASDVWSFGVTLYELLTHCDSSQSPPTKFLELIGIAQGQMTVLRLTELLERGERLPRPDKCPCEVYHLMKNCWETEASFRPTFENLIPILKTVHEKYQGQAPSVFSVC
Put plainly: TYK2 inhibition (Table 4).

Where a name gives a salt, the structure may show the parent alone.

T2 sequence (P52333 783-1124): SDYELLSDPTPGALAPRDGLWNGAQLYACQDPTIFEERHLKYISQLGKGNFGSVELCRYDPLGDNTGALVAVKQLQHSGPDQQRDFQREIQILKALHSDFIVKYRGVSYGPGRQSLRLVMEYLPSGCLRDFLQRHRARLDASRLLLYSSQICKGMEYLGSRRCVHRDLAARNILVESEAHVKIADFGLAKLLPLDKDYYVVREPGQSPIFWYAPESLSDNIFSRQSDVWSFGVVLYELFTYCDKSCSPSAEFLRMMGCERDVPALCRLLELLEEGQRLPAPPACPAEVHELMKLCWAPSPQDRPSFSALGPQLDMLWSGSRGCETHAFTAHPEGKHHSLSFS
T1 sequence (O60674 812-1132): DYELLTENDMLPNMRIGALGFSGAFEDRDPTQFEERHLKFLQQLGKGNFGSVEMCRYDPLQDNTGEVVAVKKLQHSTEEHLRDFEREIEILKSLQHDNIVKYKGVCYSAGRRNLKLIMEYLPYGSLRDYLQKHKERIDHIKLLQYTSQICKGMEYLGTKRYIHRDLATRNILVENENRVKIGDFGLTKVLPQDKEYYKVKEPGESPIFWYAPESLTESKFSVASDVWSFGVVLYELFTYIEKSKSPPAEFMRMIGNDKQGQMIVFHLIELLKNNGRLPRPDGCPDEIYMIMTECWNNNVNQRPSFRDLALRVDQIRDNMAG
T3 sequence (P23458 852-1154): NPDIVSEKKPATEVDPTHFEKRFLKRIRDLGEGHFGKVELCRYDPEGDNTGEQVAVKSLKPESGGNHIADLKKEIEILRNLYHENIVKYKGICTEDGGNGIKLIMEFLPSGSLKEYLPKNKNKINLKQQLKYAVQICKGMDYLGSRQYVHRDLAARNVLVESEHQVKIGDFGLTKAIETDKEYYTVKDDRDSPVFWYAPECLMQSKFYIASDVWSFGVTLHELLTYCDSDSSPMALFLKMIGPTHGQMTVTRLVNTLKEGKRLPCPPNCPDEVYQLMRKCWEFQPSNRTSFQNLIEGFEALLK

Turning to `Cc1nc2cnc3[nH]ccc3c2n1[C@@H]1CC[C@@H](NC(=O)CC(F)(F)F)C1` [Example 624, 3,3,3-Trifluoro-N-[(1R,3R)-3-(2-methyl-6H-1,2,3,5,6-tetraaza-as-indacen-1-yl)-cyclopentyl]-propionamide], the Ki on JAK2 was 10.2 nM; on JAK3, 13.9 nM; at JAK1 it was 2.23 nM; at TYK2, 63 nM.

For `CC(=O)N[C@H]1CC[C@H](n2cnc3cnc4[nH]ccc4c32)CC1` [Example 106, Trans N-[4-(6H-1,3,5,6-tetraaza-as-indacen-1-yl)-cyclohexyl]acetamide], the Ki at JAK2 is 10.8 nM; on JAK3 it was 43.6 nM; on JAK1 it was 5.5 nM; at TYK2, 35.6 nM.

Regarding `c1cc2c(ncc3ncn([C@@H]4CCCN(C5COC5)C4)c32)[nH]1` [Example 71, (R)-1-(1-Oxetan-3-yl-piperidin-3-yl]-1,6-dihydro-1,3,5,6-tetraaza-as-indacene], the Ki was determined as 378 nM at JAK2, 307 nM at JAK3, 264 nM on JAK1 and 1680 nM on TYK2.

On to `N#CC1CCC(n2c(CO)nc3cnc4[nH]ccc4c32)CC1` (stereo not shown) [Example 777, 4-(2-Hydroxymethyl-6H-1,3,5,6-tetraaza-as-indacen-1-yl)-cyclohexanecarbonitrile], for which the Ki on JAK2 came out at 6.86 nM; on JAK3 it was 1.04 nM; at JAK1, 1.3 nM; on TYK2 it was 0.64 nM.

For the compound `Cc1nc2cnc3[nH]ccc3c2n1[C@H]1CC[C@H](N2CCNC2=O)CC1` [Example 598, Trans 1-[4-(2-methyl-6H-1,2,3,5,6-tetraaza-as-indacen-1-yl)-cyclohexyl]-imidazolidin-2-one formic acid salt], the Ki is 8.34 nM on JAK2, 12.1 nM at JAK3, 7.31 nM on JAK1 and 45.5 nM on TYK2.

Turning to `Cc1nc2cnc3[nH]ccc3c2n1C1CC2CCC1O2` (stereo not drawn) [Example 845, exo-2-Methyl-1-(7-oxa-bicyclo[2.2.1]hept-2-yl)-1,6-dihydro-1,3,5,6-tetraaza-as-indacene], the Ki on JAK2 was determined as 13.9 nM; on JAK3, 52.3 nM; on JAK1 it was 4.17 nM; at TYK2 it was 28.8 nM.

With `c1ccc(CN2[C@@H]3CC[C@H]2C[C@H](n2cnc4cnc5[nH]ccc5c42)C3)cc1` [Example 81], the Ki at JAK2 is 15.8 nM; at JAK3, 297 nM; at JAK1, 23 nM; at TYK2 it was 222 nM.

For the compound `COCCN(C)C(=O)NC1CCC(n2cnc3cnc4[nH]ccc4c32)C1` (racemic) [Example 739, 1-(2-Methoxy-ethyl)-1-methyl-3-[3-(6H-1,3,5,6-tetraaza-as-indacen-1-yl)-cyclopentyl]-urea], the Ki came to 53.8 nM on JAK2, 299 nM on JAK3, 21.3 nM at JAK1 and 536 nM at TYK2.

In the case of `O=C(N1CCC[C@@H](n2cnc3cnc4[nH]ccc4c32)C1)C1(C(F)(F)F)CC1` [Example 228, [(R)-3-(6H-1,3,5,6-tetraaza-as-indacen-1-yl)-piperidin-1-yl]-(1-trifluoromethyl-cyclopropyl)-methanone], the Ki was found to be 5.99 nM on JAK2, 118 nM on JAK3, 15.8 nM at JAK1 and 43.4 nM on TYK2.

`NC1CC(n2cnc3cnc4[nH]ccc4c32)C1` (stereo not shown) [Example 320, 3-(6H-1,3,5,6-Tetraaza-as-indacen-1-yl)-cyclobutylamine]: the Ki at JAK2 worked out at 181 nM; at JAK3, 1160 nM; at JAK1, 56 nM; at TYK2 it was 608 nM.

For `O=S(=O)(N1CCC(n2cnc3cnc4[nH]ccc4c32)CC1)C(F)(F)F` [Example 89, 1-(1-Trifluoromethanesulfonyl-piperidin-4-yl)-1,6-dihydro-1,3,5,6-tetraaza-as-indacene], the Ki at JAK2 came to 12.8 nM; at JAK3 it was 283 nM; at JAK1, 10.8 nM; on TYK2, 98.2 nM.

`C#CCCN1CCC(n2c([C@@H](C)O)nc3cnc4[nH]ccc4c32)CC1` [Example 871, (R)-1-[1-(1-But-3-ynyl-piperidin-4-yl)-1,6-dihydro-1,3,5,6-tetraaza-as-indacen-2-yl]-ethanol]: the Ki at JAK2 stood at 290 nM; at JAK3, 177 nM; on JAK1, 59.7 nM; at TYK2, 1170 nM.

As to `c1cc2c(ncc3ncn(C4CCCOC4)c32)[nH]1` (single isomer, unassigned) [Example 466, 1-(Tetrahydro-pyran-3-yl)-1,6-dihydro-1,3,5,6-tetraaza-as-indacene], the Ki at JAK2 worked out at 24.6 nM; on JAK3, 75.6 nM; on JAK1 it was 9.66 nM; at TYK2 it was 61.8 nM.

As to `CCN1CC[C@@H](n2nnc3cnc4[nH]ccc4c32)[C@@H](F)C1` [Example 522, 1-((3S,4R)-1-Ethyl-3-fluoro-piperidin-4-yl)-1,6-dihydro-1,2,3,5,6-pentaaza-as-indacene], the Ki was found to be 56.9 nM on JAK2, 180 nM at JAK3, 38.5 nM at JAK1 and 356 nM on TYK2.

Take `O=C(Cc1ccccc1)N1CC[C@@H](n2cnc3cnc4[nH]ccc4c32)C1` [Example 430, 2-Phenyl-1-[(R)-3-(6H-1,3,5,6-tetraaza-as-indacen-1-yl)-pyrrolidin-1-yl]-ethanone]: the Ki is 162 nM at JAK2, 1240 nM at JAK3, 58.9 nM at JAK1 and 507 nM on TYK2.

For `Fc1cncc(CN2CCC(n3cnc4cnc5[nH]ccc5c43)CC2)c1` [Example 303, 1-[1-(5-Fluoro-pyridin-3-ylmethyl)-piperidin-4-yl]-1,6-dihydro-1,3,5,6-tetraaza-as-indacene], the inhibition constant (Ki) on JAK2 stood at 3.53 nM; on JAK3, 14.6 nM; on JAK1, 2.07 nM; at TYK2 it was 61.2 nM.

Turning to “[3-(6H-1,3,5,6-Tetraaza-as-indacen-1-yl)-cyclopentyl]-carbamic acid 2,2,2-trifluoro-ethyl ester [Example 733]”, the Ki was found to be 4.83 nM on JAK2, 5.88 nM on JAK3, 0.77 nM on JAK1 and 37.8 nM at TYK2.

As to `CCc1nccn1CCc1nc2cnc3[nH]ccc3c2n1C1CCN(CCC#N)CC1` [Example 815, 3-(4-{2-[2-(2-Ethyl-imidazol-1-yl)-ethyl]-6H-1,3,5,6-tetraaza-as-indacen-1-yl}-piperidin-1-yl)-propionitrile], the Ki at JAK2 was determined as 91.8 nM; at JAK3 it was 191 nM; on JAK1, 23.5 nM; at TYK2, 254 nM.

Regarding `OCCc1nc2cnc3[nH]ccc3c2n1[C@@H]1CCCNC1` [Example 16, 2-((R)-1-Piperidin-3-yl-1,6-dihydro-1,2,3,5,6-tetraaza-as-indacen-2-yl)ethanol], the Ki at JAK2 amounted to 680 nM; at JAK3, 1270 nM; at JAK1 it was 219 nM; on TYK2, 758 nM.

Consider `O=C(NCCc1nc2cnc3[nH]ccc3c2n1[C@@H]1CCCOC1)C1CC1` [Example 863, (R)-Cyclopropanecarboxylic acid {2-[1-(tetrahydro-pyran-3-yl)-1,6-dihydro-1,3,5,6-tetraaza-as-indacen-2-yl]-ethyl}-amide], for which the Ki on JAK2 is 828 nM; at JAK3, 1240 nM; on JAK1, 67.2 nM; on TYK2 it was 2020 nM.

Consider `O=C(NCCc1nc2cnc3[nH]ccc3c2n1C1CCCCC1)C1CC1(F)F` (racemic) [Example 515, 2,2-Difluoro-cyclopropanecarboxylic acid [2-(1-cyclohexyl-1,6-dihydro-1,3,5,6-tetraaza-as-indacen-2-yl)-ethyl]-amide], for which the Ki is 43.5 nM on JAK2, 120 nM at JAK3, 2.41 nM at JAK1 and 25.2 nM on TYK2.

Consider `COC[C@H](C)n1c(C)nc2cnc3[nH]ccc3c21` [Example 424, 1-((S)-2-Methoxy-1-methyl-ethyl)-2-methyl-1,6-dihydro-1,3,5,6-tetraaza-as-indacene], for which the Ki was found to be 63.3 nM at JAK2, 32.9 nM at JAK3, 46.3 nM at JAK1 and 317 nM at TYK2.

As to `CS(=O)(=O)NCc1nc2cnc3[nH]ccc3c2n1C1CC2CCC1O2` (single isomer, unassigned) [Example 850, endo-N-[1-(7-Oxa-bicyclo[2.2.1]hept-2-yl)-1,6-dihydro-1,3,5,6-tetraaza-as-indacen-2-ylmethyl]-methanesulfonamide], the Ki was 134 nM on JAK2, 106 nM at JAK3, 60.5 nM at JAK1 and 361 nM at TYK2.

Turning to `O=C(N[C@H]1CC[C@H](n2cnc3cnc4[nH]ccc4c32)CC1)c1ccncc1` [Example 570, trans N-[4-(6H-1,3,5,6-Tetraaza-as-indacen-1-yl)-cyclohexyl]-isonicotinamide], the inhibition constant Ki on JAK2 was found to be 10 nM; on JAK3 it was 116 nM; at JAK1, 11.2 nM; on TYK2, 77.7 nM.

For the compound `CCOC(=O)NCc1nc2cnc3[nH]ccc3c2n1C1CCN(CCC#N)CC1` [Example 493, {1-[1-(2-Cyano-ethyl)-piperidin-4-yl]-1,6-dihydro-1,3,5,6-tetraaza-as-indacen-2-ylmethyl}-carbamic acid ethyl ester], the Ki amounted to 36.2 nM on JAK2, 80.2 nM at JAK3, 11.3 nM at JAK1 and 121 nM at TYK2.

Usually Ki stands for a measure of affinity in units of concentration, obtained from inhibition or displacement.
